According to ChEMBL document CHEMBL2346533, “Structural effect of phenyl ring compared to thiadiazole based adamantyl-sulfonamides on carbonic anhydrase inhibition” (Bioorg Med Chem, 2013):

Columns and labels:
Carbonic anhydrase 9 = Carbonic anhydrase 9 (Homo sapiens, UniProt Q16790); test: Inhibition of tumor-associated transmembrane human carbonic anhydrase-9 after 15 mins by Stopped-flow CO2 hydrase assay
Carbonic anhydrase 3 = Carbonic anhydrase 3 (Homo sapiens, UniProt P07451); test: Inhibition of human carbonic anhydrase-3 cytosolic isoform after 15 mins by Stopped-flow CO2 hydrase assay
Chain of Carbonic anhydrase 3 (P07451 whole entry, canonical isoform): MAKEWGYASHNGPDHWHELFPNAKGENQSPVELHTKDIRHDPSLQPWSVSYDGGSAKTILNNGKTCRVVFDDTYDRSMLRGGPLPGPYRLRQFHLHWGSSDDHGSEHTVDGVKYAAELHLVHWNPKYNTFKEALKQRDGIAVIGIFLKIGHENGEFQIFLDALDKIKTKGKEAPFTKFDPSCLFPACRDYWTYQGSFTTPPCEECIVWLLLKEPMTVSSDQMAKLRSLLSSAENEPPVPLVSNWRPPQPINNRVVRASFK

Carbonic anhydrase 12 = Carbonic anhydrase 12 (Homo sapiens, UniProt O43570); test: Inhibition of tumor-associated transmembrane human carbonic anhydrase-12 after 15 mins by Stopped-flow CO2 hydrase assay
Chain of Carbonic anhydrase 12 (O43570 whole entry, canonical isoform): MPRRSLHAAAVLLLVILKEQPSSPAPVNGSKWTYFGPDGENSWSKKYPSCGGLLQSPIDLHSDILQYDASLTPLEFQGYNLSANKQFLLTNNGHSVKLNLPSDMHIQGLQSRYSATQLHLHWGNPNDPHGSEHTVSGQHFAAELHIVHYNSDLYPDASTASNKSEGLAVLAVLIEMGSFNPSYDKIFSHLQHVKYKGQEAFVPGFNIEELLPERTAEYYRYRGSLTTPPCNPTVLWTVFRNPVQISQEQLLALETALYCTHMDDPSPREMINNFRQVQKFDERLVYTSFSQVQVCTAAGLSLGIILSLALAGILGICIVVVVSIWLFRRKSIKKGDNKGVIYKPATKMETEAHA

Carbonic anhydrase 1 = Carbonic anhydrase 1 (Homo sapiens, UniProt P00915); test: Inhibition of human carbonic anhydrase-1 cytosolic isoform after 15 mins by Stopped-flow CO2 hydrase assay
Chain of Carbonic anhydrase 1 (P00915 whole entry, canonical isoform): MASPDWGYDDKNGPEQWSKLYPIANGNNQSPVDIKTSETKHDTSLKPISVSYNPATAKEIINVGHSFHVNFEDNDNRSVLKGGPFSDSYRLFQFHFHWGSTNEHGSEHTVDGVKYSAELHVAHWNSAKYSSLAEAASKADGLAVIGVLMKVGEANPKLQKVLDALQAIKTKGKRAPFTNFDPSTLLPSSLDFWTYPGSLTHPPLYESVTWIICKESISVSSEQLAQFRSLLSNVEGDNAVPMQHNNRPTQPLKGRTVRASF

NS(=O)(=O)c1ccc(NC(=O)CC23CC4CC(CC(C4)C2)C3)cc1
Ki (Carbonic anhydrase 9): 0.0565 µM
Ki (Carbonic anhydrase 3): > 10000 µM
Ki (Carbonic anhydrase 12): 0.0094 µM

NS(=O)(=O)c1ccc(NC(=O)C23CC4CC(CC(C4)C2)C3)cc1
Ki (Carbonic anhydrase 9): 0.0513 µM
Ki (Carbonic anhydrase 3): > 10000 µM
Ki (Carbonic anhydrase 12): 0.0071 µM

NS(=O)(=O)c1nnc(NC(=O)CC23CC4CC(CC(C4)C2)C3)s1
Ki (Carbonic anhydrase 3): 1400 µM
Ki (Carbonic anhydrase 1): 0.34 µM

NS(=O)(=O)c1nnc(NC(=O)C23CC4CC(CC(C4)C2)C3)s1
Ki (Carbonic anhydrase 3): 1200 µM
Ki (Carbonic anhydrase 1): 0.85 µM
